Where “and” joins values, the source holds several entries; their conditions need not be identical. Equal entries are not always repeated. Where two headings read alike, the source gives them in different places.
Assays:
[1] = design: method as in PMID 16860356, PMID 16126619; settings: rats; cited from earlier work
[2] = Plasma pharmacokinetics by HPLC-ECD after IV dose in rhesus monkeys
Protocol: These doses were chosen as the minimal effective doses (from previous model development and validation studies, unpublished data) and blood was collected for pharmacokinetic analysis. After a week wash-out and recovery period, P. coatneyi (1 mL of >50,000 parasitized RBCs per microlitre or 5 × 10^6 RBC with a 1 % parasitaemia) were inoculated from a donor monkey into all the monkeys. The treatment was initiated at day 6 after inoculation at a parasitaemia ≥3 % or >200,000 parasites μL^−1 when the cohort of animals was minimally symptomatic. Drugs were given for 3 days with a loading dose initially followed by ½ of the first dose on the 2nd and 3rd days.
Blood was collected for pharmacokinetic/pharmacodynamics (PK/PD) analysis after the first dose only due to rapid clearance of artemisinin derivatives. Heparinized blood was collected at 0, 5, 20, 40 min, 1, 3, and 6 h post-dose and plasma samples were separated within 2 h by centrifugation (1500g, 10 min). Aliquots of samples were made for simultaneous measurement by HPLC [16] and bioassay [14], and stored at −80 °C until analysis. All glassware was silanized before use with a 0.5 % aqueous solution (v/v) of Pierce Aquasil (Rockford, IL, USA) according to the manufacturer’s recommended procedure. Solid-phase extraction was performed on C-18 elution cartridge (3.0 ml, J.T. Baker Co.) using a VAC ELUTE SPS24 sample processing station (Analytichem International, Harbour City, CA, USA). The cartridge was preconditioned by sequential washing with 2.5 ml acetonitrile, 2.5 ml methanol and 2.5 ml water. One ml of distilled water was added to the cartridge before adding plasma sample (0.5 ml). Then, the cartridge was washed with 2.5 ml distilled water, 2.5 ml of 0.05 % H3PO4 (pH 4.5) and 2.5 ml of 20 % acetonitrile and completely dried by closing the vacuum for 15 min. The analytes were collected by eluting with 0.5 ml methanol three times and then with 0.5 ml 90:10 n-butyl chloride: ethyl acetate twice. The organic phases were pooled. The combined organic phases were then evaporated to dryness under a stream of nitrogen at room temperature. Extraction residues were reconstituted with 50:50 ethanol: water (0.3 ml), at least 16 h before injection. The injection volume was 100 µl for all samples.
The plasma concentration of parent drugs, AL and AS, and their primary metabolites, DHA and 2-hydroxyartelinate (OHAL) respectively, were measured by HPLC with electrochemical detection in reductive mode (HPLC-ECD) [16], which was the only method for artemisinin compounds then (Additional files 1 and 2).
HPLC with reductive electrochemical detection was performed using a model BAS 200B liquid chromatography (Bioanalytical Systems, Inc., West Lafayette, Indiana, USA). A Nova-Pak® C18 (3.9 × 150 mm, Waters Corporation, Milford, MA, USA) was used with 40 % acetonitrile in sodium acetate buffer (pH 3.6) as mobile phase. Detection was performed using a thin dual-layer glassy carbon electrode run in parallel mode at a potential of −1.0 V versus Ag/AgCl. The system was operated at the following temperatures: mobile phase 35 °C, column and detector oven 30 °C, cell 31 °C with the flow rate of 1.5 mL min^−1. Artemisinin (ART) was used as an internal standard. Samples were injected via Gilson model 231 XL sampling injector equipped with a 100 µL loop, a Gilson model 401 dilutor/pipettor, a sampler controller keypad (Gilson Medical Electronics, Middleton, WI, USA), and a Valco electrically actuated switching valve (Valco Instrument Co. Inc) was used. This system automatically deoxygenated and injected sample, which permits the high sample throughput associated with automated injection. Data were acquired and analysed using a Millennium^32 Chromatography Manager (Waters Corporation, Milford, MA, USA).

[3] = test system: P. falciparum clone (W2); test: Ex vivo Plasmodium falciparum-based bioassay (BA) of rhesus plasma, effect kinetics (ePD) as DHA equivalents; type: cell-based; settings: for Bioactivity %AUC20 / Bioactivity Cl: mean
Protocol: Blood was collected for pharmacokinetic/pharmacodynamics (PK/PD) analysis after the first dose only due to rapid clearance of artemisinin derivatives. Heparinized blood was collected at 0, 5, 20, 40 min, 1, 3, and 6 h post-dose and plasma samples were separated within 2 h by centrifugation (1500g, 10 min). Aliquots of samples were made for simultaneous measurement by HPLC [16] and bioassay [14], and stored at −80 °C until analysis.
The plasma anti-malarial activities of the artemisinin derivatives were measured using a previously published method [14]. […] After centrifugation, the supernatant (100 µL) was transferred to a 96-well flat bottom plate. Twofold serial dilutions were then made using heat inactivated pooled control serum (human:rhesus = 1:1). A suspension of malaria (W2 clone) infected erythrocytes was added to each well. The microtitre plate was placed into a gas-tight plexiglass chamber, flushed with a gas mixture of 90 % CO2, 5 % O2, and 5 % N2, and placed into an incubator (37 °C). Following 24 h incubation, the plate was removed from the chamber and pulsed with [^3H]-hypoxanthine solution to each well and incubated for another 18–20 h before harvesting. The incorporation of [^3H]-hypoxanthine by the parasites in each well was determined by counting in a scintillation counter.
A dose–response curve for each plasma sample was constructed by plotting [^3H]-hypoxanthine uptake on the Y-axis against the corresponding dilution factor on the X-axis after logarithmic transformation. The dilution factor value that inhibits parasite growth by 50 % (DF50) of each plasma sample was determined.

[4] = Deaths and tolerability in P. coatneyi-infected rhesus monkeys; type: in vivo, rhesus macaques (Macaca mulatta); settings: for Deaths: infected rhesus, IV AL 11.8 mg kg^−1
[5] = test system: Plasmodium coatneyi; test: In vivo pharmacodynamics (parasite clearance) in uncomplicated P. coatneyi-infected splenectomized rhesus monkey model
Protocol: Twenty-two adult colony-born, Indian-origin rhesus macaques (Macaca mulatta) naïve monkeys were splenectomized and recovered well more than 1 month prior to entering the study. […] Twenty-two animals were randomized to two experiments of 11 monkeys. […] The control monkeys received intramuscular quinine treatment and the experimental animals received intravenous artemisinin candidates.
Based on our previous model validation, blood smears were performed to detect malaria parasites starting prior to inoculation on day 0 and continued daily (0700–0800 h). The monkeys were physically restrained in the squeeze cage restraint apparatus and approximately 0.1–0.2 ml whole blood was collected from each monkey by lancet puncture of the lateral auricular vein. Thick and thin smears were made on the same microscope glass slide and subsequently fixed in methanol and stained with Giemsa. When the smears were positive, white blood cell count (WBC) and/or red blood cell count (RBC) were also performed using automated haematology analyzer Sysmex K800 to calculate parasite density. Haematocrits were checked as needed. At study days 6–12, additional blood samples were obtained from all animals in the afternoon (1500–1600 h) to monitor parasitaemia levels. Daily blood smears were continued until two consecutive days with negative smears. Then the smear monitoring schedule was reduced to two times weekly for 2 weeks and then weekly for 6 weeks after completion of the last treatment.
Blood smear staining and parasitaemia determination took about 2 h. […] The control monkey received quinine treatment and the ten experimental animals received intravenous artemisinin derivative candidate.
After a week wash-out and recovery period, P. coatneyi (1 mL of >50,000 parasitized RBCs per microlitre or 5 × 10^6 RBC with a 1 % parasitaemia) were inoculated from a donor monkey into all the monkeys. The treatment was initiated at day 6 after inoculation at a parasitaemia ≥3 % or >200,000 parasites μL^−1 when the cohort of animals was minimally symptomatic. Drugs were given for 3 days with a loading dose initially followed by ½ of the first dose on the 2nd and 3rd days.
Blood smear were collected once daily in the morning. Once positive parasitaemia was observed and reached 2000 parasites μL^−1, blood smears were collected twice, in the morning and afternoon. Blood for slides preparation were collected from ear for thick and thin smear preparation. Blood films on glass slides were air dried, fixed with 100 % methanol, stained with Giemsa, and read under ×100 magnification oil emersion for parasite determination.
First, a thick smear was performed for parasite detection by reading the slides at least 50 fields under ×100 magnification oil emersion.

[6] = DHA equivalents, infected rhesus

SMILES: CC1CCC2C(C)C(OCc3ccc(C(=O)O)cc3)OC3OC4(C)CCC1C32OO4.CC1CCC2C(C)C(OCc3ccc(C(=O)O)cc3)OC3OC4(C)CCC1C32OO4.O (stereo not drawn) [IV AL, 4-(10′ dihyro-artemisinin-oxymethyl) benzoic acid hemihydrate]
- toxicity [1]: more toxic than AS
- Plasma concentration, mean ([2]; 0.08 h, healthy rhesus, after IV AL 11.8 or AS 8.0 mg/kg): 61.58 µM
- Plasma concentration, mean ([2]; 0.08 h, infected rhesus, after IV AL 11.8 or AS 8.0 mg/kg): 62.96 µM
- Plasma concentration, mean ([2]; 0.33 h, healthy rhesus): 43.27 µM
- Plasma concentration, mean ([2]; 0.33 h, infected rhesus): 46.68 µM
- Plasma concentration, mean ([2]; 0.67 h, healthy rhesus): 26.12 µM
- Plasma concentration, mean ([2]; 0.67 h, infected rhesus): 26.79 µM
- Plasma concentration, mean ([2]; 1.0 h, healthy rhesus): 16.73 µM
- Plasma concentration, mean ([2]; 1.0 h, infected rhesus): 21.04 µM
- Plasma concentration, mean ([2]; 3.0 h, healthy rhesus): 0.68 µM
- Plasma concentration, mean ([2]; 3.0 h, infected rhesus): 1.24 µM
- Plasma concentration, mean ([2]; 6.0 h, healthy rhesus): 0 µM
- Plasma concentration, mean ([2]; 6.0 h, infected rhesus): 0.05 µM
- DHA in plasma after IV AL ([2]; healthy or infected monkeys): no DHA was found in plasma
- AUC0–20, parent drug ([2]; infected rhesus): 925 µM·min
- AUC0–∞, parent drug ([2]; infected rhesus): 3706 µM·min
- Cmax ([2]; mean, P. coatneyi infected rhesus, IV AL/Lys 11.8 or AS/Na 8 mg/kg, analyte = label): 61.5 µM
- %AUC20 ([2]; mean, healthy rhesus): 33.4%
- AUC 0-20 ([2]; mean, healthy rhesus): 940 µmol·min/L
- AUC(0-inf) ([2]; mean, healthy rhesus): 3,039 µmole min L^-1
- Cl ([2]; mean, healthy rhesus): 0.45 L hr^-1 kg ^-1
- Vz ([2]; mean, healthy rhesus): 0.26 L kg ^-1
- t 1/2, z ([2]; mean, healthy rhesus): 25.3 min
- Cmax ([2]; mean, healthy rhesus, IV AL/Lys 11.8 or AS/Na 8 mg/kg): 61.6 µM
- %AUC20 ([2]; mean, infected rhesus): 31.5%
- AUC 0-20 ([2]; mean, infected rhesus): 954 µmol·min/L
- AUC(0-inf) ([2]; mean, infected rhesus): 3,392 µmole min L^-1
- Cl ([2]; mean, infected rhesus): 0.43 L hr^-1 kg ^-1
- Vz ([2]; mean, infected rhesus): 0.28 L kg ^-1
- t 1/2, z ([2]; mean, infected rhesus): 29.6 min
- Vz, parent ([2]; median, infected rhesus): 0.259 L/kg
- % AUC0–20 / AUC0–∞ ([2]; parent drug, infected rhesus): 24.6%
- Cmax ([2]; read-out: Cmax, parent drug, infected rhesus): 60.2 µM
- Antimalarial activity expressed as DHA equi., mean ([3]; 0.08 h, healthy rhesus): 5.69 µmol/L
- Antimalarial activity expressed as DHA equi., mean ([3]; 0.08 h, infected rhesus): 7.58 µmol/L
- Antimalarial activity expressed as DHA equi., mean ([3]; 0.33 h, healthy rhesus): 4.09 µmol/L
- Antimalarial activity expressed as DHA equi., mean ([3]; 0.33 h, infected rhesus): 5.32 µmol/L
- Antimalarial activity expressed as DHA equi., mean ([3]; 0.67 h, healthy rhesus): 2.56 µmol/L
- Antimalarial activity expressed as DHA equi., mean ([3]; 0.67 h, infected rhesus): 3.58 µmol/L
- Antimalarial activity expressed as DHA equi., mean ([3]; 1.0 h, healthy rhesus): 1.75 µmol/L
- Antimalarial activity expressed as DHA equi., mean ([3]; 1.0 h, infected rhesus): 2.58 µmol/L
- Antimalarial activity expressed as DHA equi., mean ([3]; 3.0 h, healthy rhesus): 0.07 µmol/L
- Antimalarial activity expressed as DHA equi., mean ([3]; 3.0 h, infected rhesus): 0.19 µmol/L
- Antimalarial activity expressed as DHA equi., mean ([3]; 6.0 h, healthy rhesus): 0 µmol/L
- Antimalarial activity expressed as DHA equi., mean ([3]; 6.0 h, infected rhesus): 0 µmol/L
- AUC0–20, ePD [3, 6]: 115 µM·min
- AUC0–∞, ePD [3, 6]: 426 µM·min
- Bioactivity %AUC20 ([3]; healthy rhesus): 31.7%
- Bioactivity Cl ([3]; healthy rhesus): 4.75 L hr^-1 kg ^-1
- Bioactivity %AUC20 ([3]; infected rhesus): 27.7%
- Bioactivity Cl ([3]; infected rhesus): 3.08 L hr^-1 kg ^-1
- Deaths [4]: two deaths in the infected animals within 2.5 h
- Deaths ([4]; listed as AL): two died following AL regimen before parasite clearance
- Tolerability ([4]; other animals in the experiment): well tolerated by the other animals
- Parasite/µL, mean ([5]; 0.29 day post-dose): 704,770 Parasite/µL
- Parasite Reduction ([5]; 0.29 day post-dose, IV AL experiment (mean; IM QN = its control monkey)): 20.4%
- Parasite/µL, mean ([5]; 1.00 day post-dose): 124,294 Parasite/µL
- Parasite Reduction ([5]; 1.00 day post-dose, IV AL experiment): 82.2%
- Parasite/µL, mean ([5]; 1.29 day post-dose): 32,703 Parasite/µL
- Parasite Reduction ([5]; 1.29 day post-dose, IV AL experiment): 95.2%
- Parasite/µL, mean ([5]; 2.00 day post-dose): 6,978 Parasite/µL
- Parasite Reduction ([5]; 2.00 day post-dose, IV AL experiment): 98.9%
- Parasite/µL, mean ([5]; 2.29 day post-dose): 3,976 Parasite/µL
- Parasite Reduction ([5]; 2.29 day post-dose, IV AL experiment): 99.4%
- Parasite/µL, mean ([5]; 3.00 day post-dose): 895 Parasite/µL
- Parasite Reduction ([5]; 3.00 day post-dose, IV AL experiment): 99.9%
- Parasite/µL, mean ([5]; 3.29 day post-dose): 377 Parasite/µL
- Parasite Reduction ([5]; 3.29 day post-dose, IV AL experiment): 99.9%
- Parasite/µL, mean ([5]; 4.00 day post-dose): 568 Parasite/µL
- Parasite Reduction ([5]; 4.00 day post-dose, IV AL experiment): 99.9%
- Parasite/µL, mean ([5]; 4.29 day post-dose): 8,704 Parasite/µL
- Parasite Reduction ([5]; 4.29 day post-dose, IV AL experiment): 98.5%
- Parasite/µL, mean ([5]; 5.00 day post-dose): 2,880 Parasite/µL
- Parasite Reduction ([5]; 5.00 day post-dose, IV AL experiment): 99.5%
- Parasite/µL, mean ([5]; 5.29 day post-dose): 1,141 Parasite/µL
- Parasite Reduction ([5]; 5.29 day post-dose, IV AL experiment): 99.8%
- Parasite/µL, mean ([5]; 6.00 day post-dose): 18,619 Parasite/µL
- Parasite Reduction ([5]; 6.00 day post-dose, IV AL experiment): 96.8%
- Parasite/µL, mean ([5]; 6.29 day post-dose): 92,458 Parasite/µL
- Parasite Reduction ([5]; 6.29 day post-dose, IV AL experiment): 84.4%
- Parasite/µL, mean ([5]; 7.00 day post-dose): 51,036 Parasite/µL
- Parasite Reduction ([5]; 7.00 day post-dose, IV AL experiment): 91.4%
- PCT of individual animals ([5]; IV AL: the only two determinable, IV AS: the two most rapid): 5.3 days and 4.0 days
- Recrudescence, median (range, n) ([5]; in vivo): 6.5 (6–7, 2) days
- R, Day (recrudescence day), mean ([5]; n 2 IV AL, n 10 IV AS): 6.50 days
- Treatment failure ([5]; parasite counts never reached zero): Six animals failed treatment
- PC50 ([5]; range in evaluable animals (4 of 8 IV AL, 3 of 10 IV AS)): 2.72 to 10.9 h

Reference: PMC5011932, “Comparative pharmacokinetics and pharmacodynamics of intravenous artelinate versus artesunate in uncomplicated Plasmodium coatneyi-infected rhesus monkey model” (Malaria Journal, 2016)
